One series concerns rat trachea. The series is described as follows: Inhibition of ciliary beating frequency of rat trachea. It is filed as cell-based. The source says: The prior art teaches away from the use of chlorobutanol stating that at 0.6% concentration, the chlorobutanol caused more than 50% inhibition of ciliary beating frequency of rat trachea.
The conditions of series [1]: ingredient as supplied (EP grade); cited from earlier work.
Series [2] relates to respiratory mucosal tissue. Conditions: in vitro exposure; Berg et al. 1994; cited from earlier work.
In the next series the test system is frog palate. Conditions: ex vivo frog palate; Braga et al. 1992; cited from earlier work.
For series [3] the following is noted: healthy volunteers, decongestant nasal spray containing the preservative; cited from earlier work.

Turning to `CC(C)(O)C(Cl)(Cl)Cl` [chlorobutanol], the “effect on ciliary beating frequency of rat trachea” value in the series on rat trachea (chlorobutanol concentration less than 0.4%) was “greatly reduced”; with rat trachea (chlorobutanol concentration of around 0.25%), “totally eliminated”.
Turning to “Salmon Calcitonin [Salmon Calcitonin, EP]”, the Potency entry in series [1] is given as “Potency of 6236 IU/mg”.
Consider benzalkonium chloride, for which the “morphological effect on respiratory mucosal tissue” value in series [2] is “severe morphological alterations”. The mucocilary transport velocity result with frog palate is reported as “significant slowing”. For the same compound, in series [3], the effect on rhinitis result is “aggravate rhinitis”.
